Measured values published in patent US8133909B2 (Hoffmann-La Roche Inc., priority 2008, dated 2012).
Where a name gives a salt, the structure may show the parent alone.

What follows are compounds tested against T1, human orexin-2 (hOX2) receptors (Homo sapiens, UniProt O43614) (assay: Intracellular Ca2+ mobilization assay (FLIPR), antagonism of orexin-A). Conditions: CHO(dHFr-) cells stably expressing hOX2; orexin-A at EC80 as agonist; antagonist applied 25 min before; Kb=IC50/(1+[A]/EC50); read-out: Kb (μM) OX2R (human).
T1 construct: expressed in transfected cells
T1 sequence (O43614 1-444): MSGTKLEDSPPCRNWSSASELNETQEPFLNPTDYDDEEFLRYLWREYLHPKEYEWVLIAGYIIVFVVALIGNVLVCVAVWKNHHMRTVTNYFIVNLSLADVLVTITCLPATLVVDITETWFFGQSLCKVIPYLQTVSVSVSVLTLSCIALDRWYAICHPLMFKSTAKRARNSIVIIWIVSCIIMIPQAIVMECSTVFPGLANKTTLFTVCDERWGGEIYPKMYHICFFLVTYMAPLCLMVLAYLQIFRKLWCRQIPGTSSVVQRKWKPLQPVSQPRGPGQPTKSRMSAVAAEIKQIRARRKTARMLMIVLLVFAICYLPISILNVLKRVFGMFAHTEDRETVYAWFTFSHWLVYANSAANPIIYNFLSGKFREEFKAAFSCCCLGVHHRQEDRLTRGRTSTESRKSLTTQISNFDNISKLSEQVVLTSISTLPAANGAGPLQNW
Format: cell-based
Description: Intracellular Ca^2+ Mobilization Assay
The Chinese Hamster Ovary (dHFr—) mutant cell line stably expressing human orexin-1 (hOX1) or human orexin-2 (hOX2) receptors were maintained in Dulbecco's Modified Eagle Medium (1X) with GlutaMax™ 1, 4500 mg/L D-Glucose and Sodium Pyruvate (Catalog No. 31966-021, Invitrogen, Carlsbad, Calif.), 5% dialyzed fetal calf serum (Catalog No. 26400-044), 100 μg/ml penicillin and 100 μg/ml streptomycin. The cells were seeded at 5×10^4 cells/well in the poly-D-lysine treated, 96-well, black/clear-bottomed plates (Catalog No. BD356640, BD Biosciences, Palo Alto, Calif.). 24 h later, the cells were loaded for 1 h at 37° C. with 4 μM Flou-4 acetoxymethyl ester (Catalog No. F-14202, Molecular Probes, Eugene, Oreg.) in FLIPR buffer (1×HBSS, 20 mM HEPES, 2.5 mM Probenecid). Hanks' Balanced Salt Solution (HBSS) (10×) (catalog No. 14065-049) and HEPES (1M) (catalog No. 15630-056) were purchased from Invitrogen, Carlsbad, Calif. Probenecid (250 mM) (catalog No. P8761) was from Sigma, Buchs, Switzerland. The cells were washed five times with FLIPR buffer to remove excess dye and intracellular calcium mobilization, [Ca^2+]i were measured using a Fluorometric Imaging Plate Reader (FLIPR-96, Molecular Devices, Menlo Park, Calif.) as described previously (Malherbe et al., Mol. Pharmacol., 64, 823-832, 2003). Orexin A (catalog No. 1455, Toris Cookson Ltd, Bristol, UK) was used as agonist. Orexin A (50 mM stock solution in DMSO) was diluted in FLIPR buffer +0.1% BSA. The EC50 and EC80 values of orexin-A were measured daily from standard agonist concentration-response curves in CHO(dHFr—)—OX1R and —OX2R cell lines. All compounds were dissolved in 100% DMSO. Inhibition curves were determined by addition of 11 concentrations (0.0001-10 μM) of inhibitory compounds and using EC80 value of orexin-A as agonist (a concentration which gave 80% of max agonist response, determined daily). The antagonists were applied 25 min (incubation at 37° C.) before the application of the agonist. Responses were measured as peak increase in fluorescence minus basal, normalized to the maximal stimulatory effect induced by EC80 value of orexin-A or orexin- B. Inhibition curves were fitted according to the Hill equation: y=100/(1+(x/IC50)^nH), where nH=slope factor using Excel-fit 4 software (Microsoft). Kb values were calculated according to the following equation Kb=IC50/(1+[A]/EC50) where A is the concentration of agonist added which is very close to agonist EC80 value, and IC50 and EC50 values were derived from the antagonist inhibition and orexin-A or B agonist curves, respectively.

Row | Kb | Compound
1 | 0.0047 µM | Cc1ccc(CCN(C(=O)[C@@H](N)c2ccccc2)c2ccc(C)c(C)c2)nc1 [Example 21, (S)-2-Amino-N-(3,4-dimethyl-phenyl)-N-[2-(5-methyl-pyridin-2-yl)-ethyl]-2-phenyl-acetamide hydrochloride]
2 | 0.0839 µM | Cc1ccc(N(CCc2ccc(C(F)(F)F)nc2)C(=O)[C@@H](C)c2ccccc2)cc1C [Example 24, (S)—N-(3,4-Dimethyl-phenyl)-2-phenyl-N-[2-(6-trifluoromethyl-pyridin-3-yl)-ethyl]-propionamide]
3 | 0.0008 µM | Cc1ccc(N(CCc2ccc(C(F)(F)F)cn2)C(=O)[C@@H](N)c2ccccc2)cc1C [Example 25, (S)-2-Amino-N-(3,4-dimethyl-phenyl)-2-phenyl-N-[2-(5-trifluoromethyl-pyridin-2-yl)-ethyl]-acetamide hydrochloride]
4 | 0.07 µM | CCn1nc(C)c2cc(N(CCc3ccc(C(F)(F)F)nc3)C(=O)[C@@H](O)c3ccccc3)ccc21 [Example 48, (S)—N-(1-Ethyl-3-methyl-1H-indazol-5-yl)-2-hydroxy-2-phenyl-N-[2-(6-trifluoromethyl-pyridin-3-yl)-ethyl]-acetamide]
5 | 0.0361 µM | O=C([C@@H](O)c1ccccc1)N(CCc1ccc(C(F)(F)F)nc1)c1cnc2ccccc2c1 [Example 49]
6 | 0.0142 µM | O=C([C@@H](O)c1ccccc1)N(CCc1ccc(C(F)(F)F)nc1)c1ccc2c(c1)OCCO2 [Example 55, (S)—N-(2,3-Dihydro-benzo[1,4]dioxin-6-yl)-2-hydroxy-2-phenyl-N-[2-(6-trifluoromethyl-pyridin-3-yl)-ethyl]-acetamide]
7 | 0.0026 µM | COc1cc(N(CCc2ccc(C(F)(F)F)nc2)C(=O)[C@@H](O)c2ccc(F)cc2)ccc1C [Example 61, (S)-2-(4-Fluoro-phenyl)-2-hydroxy-N-(3-methoxy-4-methyl-phenyl)-N-[2-(6-trifluoromethyl-pyridin-3-yl)-ethyl]-acetamide]
8 | 0.0475 µM | CC(=O)O[C@H](C(=O)N(CCc1ccc(C(F)(F)F)cn1)c1ccc(C)c(C)c1)c1ccccc1 [Example 65, Acetic acid (S)-{(3,4-dimethyl-phenyl)-[2-(5-trifluoromethyl-pyridin-2-yl)-ethyl]-carbamoyl}-phenyl-methyl ester]

The next lines start with the compound.

Row | Compound | Kb
9 | Cc1ccc(N(CCc2ccc(C(F)(F)F)cn2)C(=O)[C@@H](O)c2ccccc2)cc1C [Example 26, (S)—N-(3,4-Dimethyl-phenyl)-2-hydroxy-2-phenyl-N-[2-(5-trifluoromethyl-pyridin-2-yl)-ethyl]-acetamide] | 0.0038 µM
10 | COc1cccc(N(CCc2ccc(C(F)(F)F)nc2)C(=O)[C@@H](O)c2ccccc2)c1 [Example 56, (S)-2-Hydroxy-N-(3-methoxy-phenyl)-2-phenyl-N-[2-(6-trifluoromethyl-pyridin-3-yl)-ethyl]-acetamide] | 0.0176 µM
11 | Cc1ccc(N(CCc2ccc(C(F)(F)F)nc2)C(=O)[C@@H](NC2COC2)c2ccccc2)cc1C [Example 57, (S)—N-(3,4-Dimethyl-phenyl)-2-(oxetan-3-ylamino)-2-phenyl-N-[2-(6-trifluoromethyl-pyridin-3-yl)-ethyl]-acetamide] | 0.0016 µM
12 | O=C([C@@H](O)c1ccc(F)cc1)N(CCc1ccc(C(F)(F)F)nc1)c1ccc2c(c1)CCCC2 [Example 60, (S)-2-(4-Fluoro-phenyl)-2-hydroxy-N-(5,6,7,8-tetrahydro-naphthalen-2-yl)-N-[2-(6-trifluoromethyl-pyridin-3-yl)-ethyl]-acetamide] | 0.0053 µM
13 | O=C([C@@H](O)c1ccccc1)N(CCc1ccc(C(F)(F)F)nc1)c1ccc2c(c1)CCCO2 [Example 62] | 0.011 µM
14 | O=C([C@@H](O)c1ccccc1)N(CCc1ccc(C(F)(F)F)nc1)c1ccc2c(c1)[C@@H](O)CCO2 [Example 63, (S)-2-Hydroxy-N-((S)-4-hydroxy-chroman-6-yl)-2-phenyl-N-[2-(6-trifluoromethyl-pyridin-3-yl)-ethyl]-acetamide] | 0.0243 µM
